EC50 data for one compound are collected here from PubChem BioAssay AID2458 (Broad Institute, 2010).

Inconclusive results are not listed.

The test deals with Luciferin 4-monooxygenase (Photinus pyralis) (UniProt P08659). As to the kind of experiment: Photinus pyralis luciferase translation or activity inhibitors, H4 neuroglioma cells, confirmatory dose response (AID 2458). The settings on record: luciferase luminescence.
Luciferin 4-monooxygenase (Photinus pyralis), sequence (P08659 whole entry, looked up): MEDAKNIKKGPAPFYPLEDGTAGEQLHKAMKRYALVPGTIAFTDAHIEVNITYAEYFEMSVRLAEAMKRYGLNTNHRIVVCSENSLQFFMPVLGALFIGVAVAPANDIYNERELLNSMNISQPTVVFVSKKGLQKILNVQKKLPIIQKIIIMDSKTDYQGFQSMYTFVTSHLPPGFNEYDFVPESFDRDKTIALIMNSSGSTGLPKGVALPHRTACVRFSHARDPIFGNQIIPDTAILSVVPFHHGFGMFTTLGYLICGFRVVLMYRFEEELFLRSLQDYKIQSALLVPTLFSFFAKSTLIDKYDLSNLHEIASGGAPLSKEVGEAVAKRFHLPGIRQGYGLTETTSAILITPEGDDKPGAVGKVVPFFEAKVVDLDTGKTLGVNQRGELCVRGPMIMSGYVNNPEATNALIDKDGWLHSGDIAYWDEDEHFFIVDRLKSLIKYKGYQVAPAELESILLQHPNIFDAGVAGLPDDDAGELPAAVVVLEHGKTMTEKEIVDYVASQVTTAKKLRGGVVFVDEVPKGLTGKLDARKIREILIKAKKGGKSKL

Regarding `COc1ccc(O)c2c(=O)c3c(OC)cc4c(c3oc12)C1C=COC1O4` (stereo unspecified), the EC50 (in general, the concentration giving half of the maximal effect) is 521 nM.
